Structures are written as SMILES. Values joined by “and” are separate entries in the source; they are usually repeats but may differ in a detail not shown here. Equal entries are not always repeated. “Also recorded” adds a separate entry of the source. Where two headings read alike, the source gives them in different places.

By Ki is commonly meant the dissociation constant of the complex between target and ligand, obtained from inhibition or displacement.

The target in data set [1] is T1, OpuAC (substrate-binding domain of OpuA) (Lactococcus lactis, UniProt Q9RQ05).
T1 sequence (Q9RQ05 320-573): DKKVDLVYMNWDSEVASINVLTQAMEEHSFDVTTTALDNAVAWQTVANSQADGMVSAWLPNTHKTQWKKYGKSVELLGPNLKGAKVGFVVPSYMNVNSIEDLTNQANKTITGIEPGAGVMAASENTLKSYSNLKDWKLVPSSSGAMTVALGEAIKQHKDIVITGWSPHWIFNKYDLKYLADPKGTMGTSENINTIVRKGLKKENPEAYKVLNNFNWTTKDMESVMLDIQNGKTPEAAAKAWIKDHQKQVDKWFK
The data set is described as follows: Ligand binding to purified OpuAC, intrinsic protein fluorescence (direct titration). To be noted: for ΔFmax: pH7.0. The method, then: (§1) Fluorescence spectra were obtained with a Fluorolog®-3 (Jobin Yvon) spectrofluorometer. A quartz-cuvette containing 800 µL of protein sample was incubated for 10 minutes at 25°C under constant stirring before stepwise addition of the substrate (or buffer as control), using a Hamilton syringe pump (Harvard apparatus). Samples were incubated for 5 seconds before the fluorescence signal was collected for 20 seconds to obtain an averaged value at each substrate concentration.
(§2) For the intrinsic protein fluorescence measurements, the excitation and emission wavelengths were 295 and 360 nm (and slit widths of 1 and 5 nm), respectively. To determine the salt dependence of ligand-binding to purified OpuA, the buffer was exchanged to various KPi concentrations (12.5–250 mM), pH 7.0, 20% glycerol and 0.05% DDM, using a NAP10 column (GE Healthcare). Corrections for background fluorescence changes were made by titrations with buffer.
(§3) Fluorescence titrations were analyzed essentially as described by Lanfermeijer. Curve fitting was performed in Origin (OriginLab).

Data set [2] addresses T2, OpuAC (Lactococcus lactis, UniProt Q9RQ05).
T2 sequence (Q9RQ05 320-573): T1 sequence (Q9RQ05 320-573)
Put plainly: Competitive inhibition of glycine betaine-induced fluorescence changes. The class given is binding. On the procedure: as §1, §2, §3

The subject of data set [3] is OpuA reconstituted in proteoliposomes. The data set is described as follows: Substrate transport in OpuA-containing proteoliposomes, filter-based assay. The class given is biochemical, Lactococcus lactis. To be noted: 14C-labeled substrate, 50 µM (51 µM) or 5 mM, up to 30 min, 200 mM KPi pH 7 external. On the procedure: Proteoliposomes were prepared as described previously by Geertsma et al. with an ATP regenerating system present and using 200 mM KPi, pH 7, as external medium. The transport activity was measured using a filter-based assay as described by Geertsma et al. in a time dependent way (up to 30 min), using a fixed concentration of 50 µM or 5 mM of substrate.

For data set [4], the target named is T3, purified OpuA (Lactococcus lactis subsp. lactis, UniProt Q7DAU8).
T3 sequence (Q7DAU8 1-573): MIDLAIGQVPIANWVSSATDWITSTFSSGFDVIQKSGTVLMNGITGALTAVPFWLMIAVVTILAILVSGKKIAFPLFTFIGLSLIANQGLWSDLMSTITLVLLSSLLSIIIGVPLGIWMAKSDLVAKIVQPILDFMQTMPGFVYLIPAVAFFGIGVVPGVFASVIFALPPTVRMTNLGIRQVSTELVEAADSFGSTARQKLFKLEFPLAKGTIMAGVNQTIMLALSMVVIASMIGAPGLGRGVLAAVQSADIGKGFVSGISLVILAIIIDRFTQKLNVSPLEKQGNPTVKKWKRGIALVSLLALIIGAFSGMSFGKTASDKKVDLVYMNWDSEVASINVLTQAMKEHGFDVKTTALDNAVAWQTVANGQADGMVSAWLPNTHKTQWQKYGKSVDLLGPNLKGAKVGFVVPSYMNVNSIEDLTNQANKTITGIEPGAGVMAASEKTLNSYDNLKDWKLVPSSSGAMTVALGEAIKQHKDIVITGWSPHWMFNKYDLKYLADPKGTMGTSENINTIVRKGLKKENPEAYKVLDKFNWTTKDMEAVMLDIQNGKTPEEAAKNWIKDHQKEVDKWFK
T3 sequence (Q9KIF7 1-408 partner): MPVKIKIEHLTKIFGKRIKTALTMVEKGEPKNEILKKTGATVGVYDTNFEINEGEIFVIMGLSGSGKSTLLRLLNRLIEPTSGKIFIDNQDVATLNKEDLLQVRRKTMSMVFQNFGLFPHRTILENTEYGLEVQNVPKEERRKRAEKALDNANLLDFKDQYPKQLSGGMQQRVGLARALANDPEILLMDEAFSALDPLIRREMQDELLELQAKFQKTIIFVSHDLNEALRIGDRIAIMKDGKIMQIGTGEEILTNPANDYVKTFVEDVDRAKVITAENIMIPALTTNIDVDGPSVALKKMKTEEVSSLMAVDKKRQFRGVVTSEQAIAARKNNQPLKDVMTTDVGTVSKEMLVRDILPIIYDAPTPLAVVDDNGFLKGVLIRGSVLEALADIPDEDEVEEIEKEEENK
The data set is described as follows: Glycine betaine binding to purified DDM-solubilized OpuA, intrinsic protein fluorescence. The conditions noted are these: for Kd / ΔFmax: pH7.0. On the procedure:
as §1, §2, §3

Data set [5] deals with T3, purified OpuA. The data set is described as follows: Filter-based assay with radio-labeled glycine betaine (ammonium sulfate precipitation). The format is binding. On the procedure: This method is based on the principle that upon salting-out of the protein (by ammonium sulfate), the substrate remains trapped in the ligand-binding site. For these measurements, purified OpuA in the presence of 0.05% (w/v) n-dodecyl-β-maltopyranoside (DDM) was mixed such that the protein (at a final concentration of 100 µg/mL) was in a buffer composed of 10, 50 or 250 mM KPi pH7.0, 20% glycerol and 0.05% DDM. The binding assays were carried in a volume of 100 µL. […] The mixture was filtered rapidly through 0.45 µm pore-size cellulose nitrate filters. The filters were washed twice with 2 ml ammonium sulfate solution. Subsequently, the filters were placed in an open plastic vial and dried under heating in an oven at 37°C for 2 hours. The radioactivity on the filters was measured via liquid scintillation counting, using emulsifier plus scintillation liquid (Perkin Elmer). Measurements were corrected for background signals and the average of the corrected data was fitted as described under fluorescence measurements.

In data set [6] the target is T2, OpuAC. The data set is described as follows: Isothermal titration calorimetry of glycine betaine binding. To be noted: ITC. On the procedure: 200 µL of OpuAC (concentrated to 50 µM in 150 mM KPi, pH 7) was added to the cell. […] Typically, 20 injections of 2 µL volume were made with intervals of 120 seconds between each addition.
On the technique in general: In ITC the heat of successive injections is recorded.

In the next data set the test system is OpuAΔSBD. Put plainly: Ligand binding to OpuAΔSBD. Also on record: species or system Lactococcus lactis. The conditions noted are these: data not shown.
The test system of a further data set is OpuAΔCBS. Put plainly: Ligand binding to OpuAΔCBS. The arrangement: species or system Lactococcus lactis. The conditions noted are these: data not shown.
In data set [7] the target is T3, purified OpuA. Put plainly: Glycine betaine binding to purified DDM-solubilized OpuA, intrinsic protein fluorescence. The conditions noted are these: OpuA solubilized in DDM; over all salt concentrations (10–250 mM KPi); read-out: dissociation constant (Kd).
Data set [8] concerns the target OpuA in a lipidic environment. Also on record: method as in PMID 14609945. To be noted: read-out: dissociation constant; cited from earlier work.

For `C[N+](C)(C)CC(O)CC(=O)[O-]` (centres unmarked) [Carnitine], the “fluorescence response on direct titration” value in data set [1] (∼0.5 µM OpuAC) is recorded as “did not reach a stable end-level”. The Ki at OpuAC [2] was 65000 ± 11000 µM. Besides, the “transport into OpuA-containing proteoliposomes” value in data set [3] was “not taken up”.

In the case of `C[N+]1(C)CCC[C@H]1C(=O)[O-]` [Proline betaine], the inhibitory constant (Ki) on OpuAC [2] (inhibition of glycine betaine binding, ∼0.5 µM OpuAC) is 41 ± 8 µM; at OpuAC [2] (inhibition of glycine betaine binding, ∼0.5 µM OpuAC, listed as proline betaine), roughly 41 µM.

Turning to `O=C(O)[C@@H]1CCCN1` [Proline], the “transport into OpuA-containing proteoliposomes” value in data set [3] is “no accumulation of the proline”; in data set [3] (listed as proline) it was “entered the vesicles slowly but at an equal rate in the proteoliposomes and the liposomes devoid of OpuA”.

With `C[N+](C)(C)CC(=O)[O-]` [glycine betaine], the “increase of dissociation constant in DDM-solubilized state versus lipidic environment” value on purified OpuA [4] is recorded as “around 10 fold”. The Kd on purified OpuA [4] (12.5 mM KPi) was 6 ± 0.5 µM; at purified OpuA [4] (50 mM KPi) it was 6 ± 0.7 µM; on purified OpuA [4] (250 mM KPi), 5.2 ± 0.2 µM; at purified OpuA [5] (averaged from duplicate measurements for all salt concentrations (10, 50, 250 mM KPi), 30°C), 7.3 µM; on purified OpuA [7], 4 to 6 µM and 5 to 6 µM; in [8], roughly 0.5 µM. For the same molecule, the ΔFmax came out at 9.9±0.3% on purified OpuA [4] (12.5 mM KPi); 10.8±0.4% on purified OpuA [4] (50 mM KPi); 9.3±0.2% on purified OpuA [4] (250 mM KPi); 23.6±1.1% in data set [1] (OpuAC, 12.5 mM KPi); 23.4±0.9% in data set [1] (OpuAC, 50 mM KPi); 23.1±1.2% in data set [1] (OpuAC, 250 mM KPi). Further, the maximal fluorescence change at purified OpuA [4] (over all salt concentrations) was 9–11%; in [1] (OpuAC, over all salt concentrations) it was 23–24%. In addition, the bound glycine betaine in data set [1] (19.6 µM OpuAC in 150 mM KPi pH 7.0) is 0.74 mol glycine betaine per mol of OpuAC. The bound substrate in [1] (19.6 µM OpuAC in 150 mM KPi pH 7.0, data fit) is 14.5 ± 1.6 µM. Also, in data set [1] (very high protein concentration), the “amount of glycine betaine bound” value is on record as 0.74 mol/mol OpuAC. In addition, at purified OpuA [5] (all salt concentrations), the “maximal number of binding sites” value is reported as roughly 3 nmol/mg OpuA. Further, on OpuAC [6] (50 µM OpuAC, 150 mM KPi pH 7, 25°C), the “glycine betaine bound per mol of OpuAC” value is 0.7 mol. Further, the Gibbs free energy on OpuAC [6] (25°C) is -7.5 kcal/mol. In addition, the “enthalpy change (ΔH)” value at OpuAC [6] (25°C) is -3.8 ± 0.1 kcal/mol. Besides, the “transport into OpuA-containing proteoliposomes” value in [3] is “transported against a concentration gradient; also recorded: transport against a large concentration gradient”. For the same molecule, the glycine betaine binding result in the data set on OpuAΔSBD is “did not show any glycine betaine binding”. The “effect of deletion of the CBS domains on dissociation constant” value in the data set with OpuAΔCBS is reported as “did not alter the dissociation constant”.

These data come from publication PMC2861598, “Ligand Binding and Crystal Structures of the Substrate-Binding Domain of the ABC Transporter OpuA” (PLoS ONE, 2010).
